The source made the active and inactive calls.
Tests used:
[1] = Counterscreen for IDE inhibitors: Luminescence-based cell-based high throughput dose response assay to identify compounds that are cytotoxic to HEK cells. [Related pubchem assays: 434962 (Primary screen (IDE inhibitors in singlicate)), 449730 (Counterscreen (Cytotoxicity in triplicate)), 435028 (Confirmation (IDE inhibitors in triplicate)) …; format: functional; conditions: HEK293
[2] = molecular target: Cyclin-dependent kinase 5/CDK5 activator 1 (Homo sapiens, UniProt Q00535); experiment: blockade of human CDK5 activity – biochemical, cherry-picked samples, set 2, dose response (AID 504545)
[3] = molecular target: Tumor necrosis factor (Homo sapiens, UniProt P01375); experiment: analog potency on TNFa NF-kB signaling – cell-based, revised, SAR follow-up (AID 2337); format: functional
[4] = molecular target: T1, Interleukin-8 (Homo sapiens, UniProt P10145); experiment: SAR analysis of tumor necrosis factor alpha (TNF-alpha) induced IL-8 secretion in MCF-7/NOD1 cells. [Related pubchem assays (depositor defined):AID1575, AID2250, AID2260]; format: functional, cell-based
T1 sequence (P10145 whole entry): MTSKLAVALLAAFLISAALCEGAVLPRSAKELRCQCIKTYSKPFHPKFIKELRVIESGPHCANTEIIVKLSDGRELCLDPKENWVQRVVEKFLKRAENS

[5] = test system: HEK293; experiment: cells; conditions: Homo sapiens;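 further: cells exposed to compound for 14 hours overnight before viability readout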
[6] = mRNA 3' processing disruption, beta-gal signal increase – luminescence, S. cerevisiae SKY197-pL101, dose response (AID 2525); format: functional, cell-based
[7] = viability loss in THP-1 monocytes – THP-1 cells, cytotoxicity control for Vif-APOBEC3G degradation inhibitor project, dose response (AID 1117359); format: functional; conditions: THP-1
[8] = molecular target: Serine/threonine-protein phosphatase PP1-alpha catalytic subunit (Homo sapiens, UniProt P62136); experiment: inhibition of protein phosphatase 1 activity – biochemical, fluorescence, dose response (AID 2403);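 further: phosphatase turnover of OMFP into fluorescent 3-O-methylfluorescein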
[9] = Vero E6 cell cytotoxicity, dose response, cytotoxicity control for non-replicating M. tuberculosis project, secondary assay (AID 492998); format: functional, VeroE6; conditions: Vero C1008
[10] = THP-1 cell cytotoxicity, dose response, cytotoxicity control for non-replicating M. tuberculosis project (AID 489025); format: functional
[11] = cells; format: functional
[12] = HIV-1 Vif–A3G interaction blockers – biochemical, TR-FRET, GST-Vif 1-94, biotin-A3G peptide, dose response retest, primary screen (AID 1117319); format: functional;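 further: TR-FRET signal of purified GST-Vif binding a biotinylated A3G peptide; inhibitors lower the FRET signal by blocking Vif and A3G binding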
[13] = molecular target: Serine/threonine-protein phosphatase (Homo sapiens, UniProt Q9BPW0); experiment: Counterscreen for inhibitors of PP1: fluorescence-based biochemical high throughput dose response assay to identify inhibitors of Protein Phosphatase 5 (PP5). [Related pubchem assays: 2034 (Summary (PP5 inhibitors)), 1987 (PP5 inhibitors in singlate), 2235 (PP1 inhibitors in singlate)]
[14] = molecular target: T2, SUMO-activating enzyme (Homo sapiens, UniProt Q9UBT2); experiment: blockers of SAE1/SAE2–UBC9 SUMO transfer – biochemical, HTRF, uHTS, primary screen (AID 2006); format: protein-complex assay
[15] = molecular target: T2, SUMO-activating enzyme; experiment: blockers of UBC9-mediated SUMO conjugation – biochemical, AlphaScreen, SUMOylation inhibitor project, confirmation (AID 2018); format: functional
[16] = molecular target: Cytochrome P450 3A4 (Homo sapiens, UniProt P08684); conditions: Potency;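 further: confirmatory qHTS run detecting inhibitors and substrates of CYP3A4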
[17] = molecular target: Cytochrome P450 2C9 (Homo sapiens, UniProt P11712); conditions: Potency
Cytochrome P450 2C9, sequence (P11712 whole entry): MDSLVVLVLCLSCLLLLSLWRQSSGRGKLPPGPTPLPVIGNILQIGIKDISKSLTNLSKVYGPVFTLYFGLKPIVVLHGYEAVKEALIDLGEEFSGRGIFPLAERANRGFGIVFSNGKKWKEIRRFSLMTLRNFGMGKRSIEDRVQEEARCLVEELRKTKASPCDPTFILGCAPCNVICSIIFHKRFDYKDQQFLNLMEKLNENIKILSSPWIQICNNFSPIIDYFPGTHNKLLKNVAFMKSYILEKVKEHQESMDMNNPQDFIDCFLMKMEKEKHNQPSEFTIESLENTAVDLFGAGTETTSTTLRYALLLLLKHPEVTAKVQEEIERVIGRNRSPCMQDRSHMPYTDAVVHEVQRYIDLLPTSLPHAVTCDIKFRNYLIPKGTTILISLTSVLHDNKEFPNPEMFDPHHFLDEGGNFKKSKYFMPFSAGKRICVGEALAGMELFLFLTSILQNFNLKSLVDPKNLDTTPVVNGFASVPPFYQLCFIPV

T2 sequence (Q9UBE0 whole entry): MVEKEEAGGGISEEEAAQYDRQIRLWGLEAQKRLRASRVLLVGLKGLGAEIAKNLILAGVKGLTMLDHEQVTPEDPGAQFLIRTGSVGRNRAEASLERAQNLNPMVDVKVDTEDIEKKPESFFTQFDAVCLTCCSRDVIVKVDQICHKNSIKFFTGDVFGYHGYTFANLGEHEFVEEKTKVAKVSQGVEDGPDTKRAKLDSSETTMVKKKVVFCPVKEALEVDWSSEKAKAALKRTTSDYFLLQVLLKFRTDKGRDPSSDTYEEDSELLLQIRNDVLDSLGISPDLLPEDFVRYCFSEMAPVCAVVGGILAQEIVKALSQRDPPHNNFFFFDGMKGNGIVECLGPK
T2 sequence (Q9UBT2 whole entry): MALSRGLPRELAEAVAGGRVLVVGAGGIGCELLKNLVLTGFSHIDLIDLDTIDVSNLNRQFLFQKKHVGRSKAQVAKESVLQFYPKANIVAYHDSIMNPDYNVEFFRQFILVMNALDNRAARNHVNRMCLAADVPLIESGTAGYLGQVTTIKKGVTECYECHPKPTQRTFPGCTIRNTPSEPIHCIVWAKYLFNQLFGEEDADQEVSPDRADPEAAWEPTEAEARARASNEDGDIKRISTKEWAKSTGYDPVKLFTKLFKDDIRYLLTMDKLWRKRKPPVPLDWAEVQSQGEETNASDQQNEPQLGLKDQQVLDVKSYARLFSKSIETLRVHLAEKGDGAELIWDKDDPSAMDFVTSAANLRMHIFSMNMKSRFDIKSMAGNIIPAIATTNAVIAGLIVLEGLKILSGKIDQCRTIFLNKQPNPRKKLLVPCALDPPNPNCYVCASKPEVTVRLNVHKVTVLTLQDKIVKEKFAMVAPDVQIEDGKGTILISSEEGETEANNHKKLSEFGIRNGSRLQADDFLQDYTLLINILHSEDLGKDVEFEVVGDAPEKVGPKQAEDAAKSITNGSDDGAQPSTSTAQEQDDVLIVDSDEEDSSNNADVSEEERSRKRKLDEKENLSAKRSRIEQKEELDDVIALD
Serine/threonine-protein phosphatase PP1-alpha catalytic subunit, sequence (P62136 whole entry): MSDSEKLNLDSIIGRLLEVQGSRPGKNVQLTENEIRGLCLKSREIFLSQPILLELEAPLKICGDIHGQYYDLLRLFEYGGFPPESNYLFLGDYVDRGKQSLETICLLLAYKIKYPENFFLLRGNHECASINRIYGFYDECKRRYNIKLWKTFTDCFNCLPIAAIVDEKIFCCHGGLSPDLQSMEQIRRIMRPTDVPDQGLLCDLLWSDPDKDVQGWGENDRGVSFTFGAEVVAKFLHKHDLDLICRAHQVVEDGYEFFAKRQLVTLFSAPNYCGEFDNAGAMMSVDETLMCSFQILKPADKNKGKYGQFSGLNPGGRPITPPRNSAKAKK
Cytochrome P450 3A4, sequence (P08684 whole entry): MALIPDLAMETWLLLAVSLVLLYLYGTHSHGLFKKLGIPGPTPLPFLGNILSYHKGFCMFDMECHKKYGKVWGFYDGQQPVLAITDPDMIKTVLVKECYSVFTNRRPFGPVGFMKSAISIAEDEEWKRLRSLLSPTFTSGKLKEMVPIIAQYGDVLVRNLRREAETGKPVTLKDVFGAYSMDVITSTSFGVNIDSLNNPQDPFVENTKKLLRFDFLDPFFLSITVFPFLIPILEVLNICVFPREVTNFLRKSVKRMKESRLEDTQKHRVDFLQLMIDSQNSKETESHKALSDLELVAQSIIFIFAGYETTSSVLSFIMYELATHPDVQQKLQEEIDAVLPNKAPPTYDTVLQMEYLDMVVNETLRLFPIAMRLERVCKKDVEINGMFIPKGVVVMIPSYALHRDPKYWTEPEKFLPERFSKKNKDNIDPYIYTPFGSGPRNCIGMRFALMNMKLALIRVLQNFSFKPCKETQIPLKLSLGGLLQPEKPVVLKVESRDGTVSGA
Tumor necrosis factor, sequence (P01375 whole entry): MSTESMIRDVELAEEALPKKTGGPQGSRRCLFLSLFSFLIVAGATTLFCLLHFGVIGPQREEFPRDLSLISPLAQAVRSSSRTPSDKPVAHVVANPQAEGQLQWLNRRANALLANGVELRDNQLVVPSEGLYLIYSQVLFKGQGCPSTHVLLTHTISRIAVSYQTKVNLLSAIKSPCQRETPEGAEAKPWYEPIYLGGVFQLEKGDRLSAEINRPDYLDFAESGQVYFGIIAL
Cyclin-dependent kinase 5/CDK5 activator 1, sequence (Q00535 whole entry): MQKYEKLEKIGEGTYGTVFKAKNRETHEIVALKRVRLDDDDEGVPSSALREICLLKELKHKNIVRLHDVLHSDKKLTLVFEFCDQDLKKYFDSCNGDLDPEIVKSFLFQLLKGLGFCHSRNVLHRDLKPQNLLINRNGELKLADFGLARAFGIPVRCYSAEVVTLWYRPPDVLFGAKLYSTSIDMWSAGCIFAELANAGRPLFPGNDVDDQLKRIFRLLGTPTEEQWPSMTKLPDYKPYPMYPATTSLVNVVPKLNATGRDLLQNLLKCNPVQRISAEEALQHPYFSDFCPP
Cyclin-dependent kinase 5/CDK5 activator 1, sequence (Q15078 whole entry, further chain): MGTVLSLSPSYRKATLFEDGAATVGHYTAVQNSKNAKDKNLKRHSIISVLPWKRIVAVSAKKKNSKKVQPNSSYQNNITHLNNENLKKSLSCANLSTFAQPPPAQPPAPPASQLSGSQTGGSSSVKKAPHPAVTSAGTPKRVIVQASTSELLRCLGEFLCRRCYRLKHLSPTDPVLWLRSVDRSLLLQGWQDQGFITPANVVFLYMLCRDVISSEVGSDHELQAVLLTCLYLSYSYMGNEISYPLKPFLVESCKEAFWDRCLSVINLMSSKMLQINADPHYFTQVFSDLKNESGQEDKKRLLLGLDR
Serine/threonine-protein phosphatase, sequence (Q9BPW0 whole entry): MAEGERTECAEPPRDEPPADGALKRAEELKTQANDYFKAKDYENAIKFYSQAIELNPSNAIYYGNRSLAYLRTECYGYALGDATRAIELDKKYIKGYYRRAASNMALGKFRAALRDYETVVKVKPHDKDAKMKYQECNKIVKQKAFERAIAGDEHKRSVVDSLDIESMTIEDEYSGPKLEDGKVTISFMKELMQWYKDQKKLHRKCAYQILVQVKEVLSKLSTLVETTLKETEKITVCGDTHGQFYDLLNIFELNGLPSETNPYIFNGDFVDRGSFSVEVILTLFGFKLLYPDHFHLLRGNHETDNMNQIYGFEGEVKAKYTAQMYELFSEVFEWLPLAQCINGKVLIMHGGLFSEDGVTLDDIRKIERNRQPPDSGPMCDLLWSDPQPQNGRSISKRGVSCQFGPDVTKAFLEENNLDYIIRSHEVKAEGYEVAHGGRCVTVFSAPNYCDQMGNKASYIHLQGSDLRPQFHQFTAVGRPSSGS

In the case of `Oc1nc2ccccc2c(O)c1O`, the IC50 [1] is reported as 13.6 µM (not active).
With `O=C1NCCCc2c1oc1ccc(O)cc21` the AC50 [2] was 10.7 µM (active).
With `Nc1nc2ccccc2n1S(=O)(=O)c1ccc([N+](=O)[O-])cc1` the IC50 [3] was > 20 µM (inactive), the IC50 [4] was > 5 µM (inactive) and the IC50 [5] was > 20 µM (inactive).
With `N#C/C(=C/c1ccc([N+](=O)[O-])o1)c1nc2ccccc2[nH]1` the EC50 [6] was 3.08 µM (active).
With `O=C1NC(=O)C(=Cc2ccc(-c3cc(Cl)ccc3Cl)[nH]2)C(=O)N1` the CC50 [7] was > 40 µM (active), the IC50 [8] was 5.6 µM (active) and the CC50 [9] was > 20 µM (active). For the same molecule, the CC50 [10] was 23.1 µM (active), the IC50 [11] was < 0.1 µM (active) and the IC50 [12] was > 100 µM (active). For the same molecule, the IC50 [13] was > 67 µM (not active), the IC50 [14] was 16.4 µM (active) and the IC50 [15] was 11.6 µM (active).
For `CC1(C)CCC[C@@]2(C)[C@@H]1CC[C@]1(C)OC(=O)C[C@@H]21`, the AC50 [16] was 20 µM (inconclusive) and the AC50 [17] was 39.8 µM (inconclusive).

From ChEMBL document CHEMBL1201862, “PubChem BioAssay data set” (2004)
